Test results published in US8217028B2, “1,2,4-oxadiazole indole compounds” (Glaxo Group Limited, priority 2008, dated 2012).

The compounds below were run against T1, human S1P1 receptor (EDG1) (Homo sapiens, UniProt P21453) (assay: S1P1 GTPγS assay or S1P1 Tango assay (at least one of the above assays)). Settings: in at least one of the S1P1 GTPγS and S1P1 Tango assays.
T1 construct: expressed in transfected cells; host or cells: rat hepatoma cells (membranes, GTPγS assay) or Tango GPCR-bla U2OS cells (Tango assay)
T1 sequence (P21453 whole entry): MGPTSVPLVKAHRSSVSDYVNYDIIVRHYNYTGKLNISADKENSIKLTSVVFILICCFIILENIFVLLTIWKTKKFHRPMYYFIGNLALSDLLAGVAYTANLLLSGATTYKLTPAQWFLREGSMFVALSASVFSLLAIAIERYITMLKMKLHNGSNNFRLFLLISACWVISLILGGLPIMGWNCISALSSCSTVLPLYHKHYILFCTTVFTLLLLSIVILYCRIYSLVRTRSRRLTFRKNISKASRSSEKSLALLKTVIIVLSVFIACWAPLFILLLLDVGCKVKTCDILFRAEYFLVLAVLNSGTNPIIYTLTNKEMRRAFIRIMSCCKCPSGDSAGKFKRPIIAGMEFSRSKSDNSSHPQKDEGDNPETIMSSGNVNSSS
Format: cell-based
Procedure: For membrane preparations all steps were performed at 4° C. Rat hepatoma cells stably expressing the human S1P1 receptor or Rat Basophilic Leukaemia cells (RBL) stably expressing human S1P3 receptor were grown to 80% confluency before being harvested into 10 ml Phospho-Buffered Saline (PBS) and centrifuged at 1200 rpm for 5 minutes. After removal of the supernatant, the pellet was re-suspended and cells were homogenised within a glass Warning blender for 2 bursts of 15 secs in 200 mls of buffer (50 mM HEPES, 1 mM leupeptin, 25 μg/ml bacitracin, 1 mM EDTA, 1 mM PMSF, 2 μM pepstatin A). The blender was plunged into ice for 5 mins after the first burst and 10-40 mins after the final burst to allow foam to dissipate. The material was then spun at 500 g for 20 mins and the supernatant spun for 36 mins at 48,000 g. The pellet was resuspended in the same buffer as above but without PMSF and pepstatin A. The material was then forced through a 0.6 mm needle, made up to the required volume, (usually ×4 the volume of the original cell pellet), aliquoted and stored frozen at −80° C.
Human S1P1 rat hepatoma membranes (1.5 μg/well) were adhered to a wheatgerm agglutinin (WGA)-coated scintillation proximity assay (SPA) beads (0.125 mg/well) in assay buffer (HEPES 20 mM, MgCl2 10 mM, NaCl 100 mM and pH adjusted to 7.4 using KOH 5M, GDP 10 μM FAC (final assay concentration) and saponin 90 μg/ml FAC was also added).
After 30 minutes pre-coupling on ice the bead and membrane suspension was dispensed into a white Greiner polypropylene LV384-well plate (5 μl/well), containing 0.1 μl of the compound. 5 μl/well [^35S]-GTPγS (0.5 nM final radioligand conc) made up in assay buffer was then added to agonist plates. The final assay cocktail (10.1 μl) was then centrifuged at 1000 rpm for 5 minutes then read immediately on a Viewlux reader.
All test compounds were dissolved in DMSO at a concentration of 10 mM and were prepared in 100% DMSO using a 1 in 4 dilution step to provide 11 point dose response curves. The dilutions were transferred to the assay plates ensuring that the DMSO concentration was constant across the plate for all assays. All data was normalized to the mean of 16 high and 16 low control wells on each plate. A four parameter curve fit was then applied.
Recombinant EDG1-bla/U2OS cells (contain the human Endothelial Differentiation Gene 1 (EDG1) linked to a TEV protease site and a Ga14-VP16 transcription factor stably integrated into the Tango GPCR-bla U2OS parental cell line) were suspended in assay medium (Invitrogen Freestyle Expression Medium) at a density of 312, 500 cells/ml. Add 100 μl/well of the assay medium to the cell-free control wells (column 12) and 100 μl/well of the cell suspension to the test compound wells (row 2-8, column 1-10), the unstimulated control wells (DMSO) (column 11), and stimulated control wells (S1P) (row 1, column 1-10) in a Corning black-well, clear bottom 96-well plate. Cells were incubated at 37° C., 5% CO2 for 44-48 h. […]
After incubation at 37° C., 5% CO2 for 5 h, 25 μl of 6× substrate mixture (6 μl Solution A (1 mg LiveBLAzer™-FRET B/G substrate (CCF4-AM) in 912 μl DMSO) plus 60 μl Solution B plus 934 μl Solution C) was added to each well and incubate at room temperature for 2 h in dark. The plate was finally read on EnVision for two emission channels (460 nm and 530 nm). […]

EC50, < 10 µM:
CC(C)Cn1cc(CCC(=O)O)c2cccc(-c3noc(-c4ccc(OC(C)C)c(Cl)c4)n3)c21 [Example 30, 3-[7-(5-{3-chloro-4-[(1-methylethyl)oxy]phenyl}-1,2,4-oxadiazol-3-yl)-1-(2-methylpropyl)-1H-indol-3-yl]propanoic acid]
CC(C)Oc1ccc(-c2nc(-c3ccc4[nH]c(C(=O)O)cc4c3)no2)cc1Cl [Example 8, Sodium 5-(5-{3-chloro-4-[(1-methylethyl)oxy]phenyl}-1,2,4-oxadiazol-3-yl)-1H-indole-2-carboxylate]
COc1ccc(-c2nc(-c3cccc4c(CCC(=O)O)cn(C)c34)no2)cc1OC [Example 44, 3-(7-{5-[3,4-bis(methyloxy)phenyl]-1,2,4-oxadiazol-3-yl}-1-methyl-1H-indol-3-yl)propanoic acid]
CCCCn1cc(CCC(=O)O)c2cccc(-c3noc(-c4ccc(OC(C)C)c(Cl)c4)n3)c21 [Example 29, 3-[1-butyl-7-(5-{3-chloro-4-[(1-methylethyl)oxy]phenyl}-1,2,4-oxadiazol-3-yl)-1H-indol-3-yl]propanoic acid]
CC(C)Oc1ncc(-c2nc(-c3ccc4c(CN5CCC(C(=O)O)CC5)c[nH]c4c3)no2)cc1Cl [Example 78, 1-{[6-(5-{5-chloro-6-[(1-methylethyl)oxy]-3-pyridinyl}-1,2,4-oxadiazol-3-yl)-1H-indol-3-yl]methyl}-4-piperidinecarboxylic acid]
